Assay results reported in ChEMBL document CHEMBL5532636 (Eur J Med Chem, 2023).

Test system: SARS-CoV-2
Assay: Antiviral activity against SARS-CoV-2 Omicron BA.5 variant infected in African green monkey Vero E6 cells assessed as inhibition in viral replication at 25 ug/ml preincubated with cell culture for 1 hr and further infected with virus for 1 hr followed by removal of virus particles and subsequent replacement of medium containing compound measured for 72 hrs post-infection by RT-PCR analysis relative to control
Type: functional
Conditions: Severe acute respiratory syndrome coronavirus 2, Omicron BA.5, Vero C1008, time 73 hrs

Compound: O=c1cc(-c2ccccc2)oc2cc(O)c(O)c(O)c12 [BAICALEIN]
- inhibition at 25 µg/mL: > 50%
